From a melting point compilation (Tetko et al.; mined from patent text by program, amines drawn as free bases though some values may be those of a salt) come the findings set out here.

Bounds are passed on as bounds.

For `N#CCC(O)(c1ccc(Br)cc1)c1cccnc1` (stereo not drawn), the melting point (as a rule, the temperature, or range, at which the solid turns liquid) lay in the range of 158 to 161 °C.

`O=C1N[C@H](Cc2ccc(C(F)(F)F)cc2)[C@H](c2ccoc2)O1` (racemic) showed a melting point of 111 to 112 °C.

In turn, `O=C(O)C(c1ccccc1)N1CC(N2C(=O)c3ccccc3C2=O)C1=O` (stereo not drawn) came in with a melting point of 176 to 183 °C.

`CCOC(=O)/C=C\C=C(c1ccccc1)c1ccccc1` gave a melting point of 34 to 35 °C.

For `CCS(=O)(=O)c1ccc(C(=O)O)c(Cl)c1CBr`, the melting point was 103 °C.

`O=C(O)C=C(c1ccccc1)c1ccc([N+](=O)[O-])cc1` displayed a melting point of 188 to 189 °C.

Molecule `Cc1nc(Cl)c(C#N)c(NCc2cccnc2)n1` came in with a melting point of 165 to 167 °C.

In the case of `CC(CO)Nc1cc(Oc2nn(C)c(C(F)(F)F)c2Cl)ccc1[N+](=O)[O-]` (stereo not drawn), the melting point lay in the range of 118 to 120 °C.

As to `CCOc1cc(C(CC(=O)OC)N2C(=O)c3ccc(N)cc3C2=O)ccc1OC` (stereo not drawn), the melting point lay in the range of 65 to 67 °C.

Regarding `N=C(Cc1ccccc1)N1CC2C(=O)CCC(c3ccccc3)(c3ccccc3)C2C1` (stereo not drawn), the melting point worked out at 195 °C.

`CN(Cc1ccc(Cl)c(Cl)c1)C(=O)C1=C(O)C(=O)N(CCC(=O)O)C1` returned a melting point of 183 to 184 °C.

In the case of `O=S(=O)(CC1CC1)c1nc(-c2ccc(F)cc2)c(-c2ccc(F)cc2)[nH]1`, the melting point was determined as 251 °C.

Turning to `COC(=O)[C@H](Cc1ccc(OS(=O)(=O)C(F)(F)F)cc1)NC(=O)OC(C)(C)C`, the melting point fell in the range of 47 to 48 °C.

`c1ccc(-c2c3ccccc3nc3ccccc23)nc1` came in with a melting point of 192 to 205 °C.

Molecule `O=C(O)CCC(=O)c1ccc(NC(=O)C2CC2)cc1` had a melting point of 229 to 230 °C.

Molecule `CCOC(=O)N1CCN(c2cc3nc(C(C)(C)C)sc3cc2[N+](=O)[O-])CC1` registered a melting point of 100 to 102 °C.

In the case of `Cc1cncc(C)c1-c1c(C)cc(C=Cc2ccc(C(C#N)C#N)cc2)cc1C`, the melting point lay within 58 to 60 °C.

`CN1CCC(c2cccc3c2C[C@H](NC(=O)c2ccc(N4CCOCC4)cc2)CC3)CC1` displayed a melting point of 196 to 198 °C.

`CC(=O)N(C)C(c1ccc(F)cc1)c1ccc(F)cc1` returned a melting point of 99 to 100 °C.

Molecule `COn1c(-c2ccccc2)nc2c(N)nc3ccccc3c21` returned a melting point of 241 to 243 °C.

With `CNc1ccc2c(c1)C(c1ccccc1F)=NCc1cnc(C)n1-2`, the melting point fell in the range of 255 to 259 °C.

On to `CC(=Cc1ccc2ccccc2c1)c1ccc(C)cc1`, for which the melting point turned out to be 109 °C.

Molecule `COc1ccc(S(=O)(=O)C(C)(Cc2ccc(-c3ccccc3)cc2)C(=O)NO)cc1` (stereo not drawn) returned a melting point of 177 °C.

`CC1=C(C(=O)OC(C)C)C(c2cccc(Cl)c2)N(C(=O)Oc2ccc([N+](=O)[O-])cc2)CN1` (stereo not drawn) had a melting point of 165 to 167 °C.

`Nc1ccc(N2CCN(c3ccc(OCC(O)(Cn4cncn4)c4ccc(Cl)cc4Cl)cc3)CC2)cc1` (stereo not drawn) had a melting point of 120 °C.

`N#Cc1cnc2ccsc2c1Nc1ccc(Cl)cc1Cl` had a melting point of 198 to 200 °C.

For `O=C(NCC(F)F)/C(=C/c1ccc(OC(F)(F)F)cc1)NC(=O)c1ccc(OCCC(F)(F)F)cc1`, the melting point lay in the range of 142 to 143 °C.

`Cc1nc2c(OCc3cccs3)cccn2c1CC#N` gave a melting point of 155 to 157 °C.

`O=C(O)c1ccc2c(c1)N(C1CC1)CNS2(=O)=O` came in with a melting point of 243 to 245 °C.

Take `COc1cc(-c2nc(-c3cc(OC)c(OCc4ccccc4)c(OC)c3)c(-c3cc(OC)c(OCc4ccccc4)c(OC)c3)o2)cc(OC)c1OCc1ccccc1`: the melting point lay within 80 to 120 °C.

In the case of `Cc1ccc(-c2nnc(S)nc2-c2ccc(C)cc2)cc1`, the melting point was in the range of 220 to 223 °C.

Molecule `C=CC(=O)NCc1ccc([N+](=O)[O-])cc1` showed a melting point of 119 to 121 °C.

Regarding `CCOC(=O)C=Cc1ccc(C(F)(F)F)cc1`, the melting point was in the range of 31 to 32.5 °C.

The molecule `CCC(CC)n1cc(Cl)nc(N2CCc3cc(Br)cc(Cl)c32)c1=O` came in with a melting point of 156 to 157 °C.

Consider `CC(=NO)c1ccnc(N(C)C)c1`, for which the melting point was in the range of 145 to 148 °C.

As to `CCO/C=C/C(=O)Nc1cccc(Br)c1OC`, the melting point fell in the range of 102 to 104 °C.

Turning to `COc1ccc(Br)cc1-c1cc(-c2ccc(Br)cc2)no1`, the melting point is 153 to 154 °C.

`C[C@@H]1[C@H]2C(=O)N(Cc3ccccc3)C(=O)[C@H]2[C@@H](c2ccc(C(N)=NO)cc2)N1C` (racemic): the melting point fell in the range of 194 to 196 °C.

Molecule `CS(=O)(=O)c1ccc(-c2cc(Br)c3cnc(Nc4ccc(N5CCOCC5)cc4)nn23)cc1` had a melting point of 242 to 244 °C.

`CCCCN1CCC(C(=O)NO)(S(=O)(=O)c2ccc(OC)cc2)CC1`: the melting point came out at 75 °C.

In the case of `c1cc(Nc2nccc3ccccc23)cc(-n2ccnc2)c1`, the melting point fell in the range of 164 to 167 °C.

In turn, `Cc1c(Cc2cccc(C(F)(F)F)c2)sc2c(-c3cc(C(N)=O)ccn3)cccc12` gave a melting point of 193 to 194 °C.

As for `COCc1ccc(C(=O)O)c2ccccc12`, the melting point lay in the range of 133 to 134 °C.

In turn, `N#Cc1ccc(O[C@@H]2c3cccnc3C[C@H]2N2CCC[C@@H](N)C2)c(Cl)c1` registered a melting point of 172 °C.

`CO[C@H](C)C(=O)N[C@H]1CC[C@H](CCN2CCN(c3nccc4c3OCC4)CC2)CC1` gave a melting point of 170 °C.

The molecule `COC(=O)Cc1ccc(C#C[Si](C)(C)C)cc1` yielded a melting point of 55 to 58 °C.

As to `NCCNc1ccc(NCCO)cc1[N+](=O)[O-]`, the melting point was 112 °C.

As to `C=C(C)C(=O)N1CC(C)OC1(C)C` (stereo not drawn), the melting point was 24 °C.

Turning to `CCCCCCSc1cc(SCCCCCC)c2ccc3c(SCCCCCC)cc(SCCCCCC)c4ccc1c2c43`, the melting point amounted to 92 °C.

`Cc1cc(C2=NOC(c3cc(Cl)cc(Cl)c3)(C(F)(F)F)C2)ccc1C(=O)Nc1cncnc1` (stereo not drawn) returned a melting point of 207 to 211 °C.

As to `COc1cccc(NC(=O)c2ccc([N+](=O)[O-])cc2)c1`, the melting point fell in the range of 189 to 191 °C.

As to `CCC1(C)Oc2cccc(O)c2O1` (stereo not drawn), the melting point fell in the range of 48 to 50 °C.

The molecule `COCCOc1ccc(C(=O)C2=C(O)C(=O)N(c3ccc(C)nn3)C2c2ccc(OC(F)(F)F)cc2)cc1` (stereo not drawn) displayed a melting point of 216 to 219 °C.

`CC(=O)N(c1cccc(Oc2ccccc2)c1)C(C)C(=O)O` (stereo not drawn) yielded a melting point of 145 to 146 °C.

As for `COc1ccc([N+](=O)[O-])cc1C(C#N)O[Si](C)(C)C` (stereo not drawn), the melting point lay in the range of 108 to 111 °C.

Take `CCNC(=O)Oc1ccccc1`: the melting point was in the range of 49 to 50 °C.

In the case of `CCOC(=O)c1cnc2cc(N)ccc2n1`, the melting point lay in the range of 181 to 183 °C.

`O=C(NCCO)/C(=C/c1ccc(OC(F)(F)F)cc1)NC(=O)c1ccc(OCC2CCC2)cc1` returned a melting point of 168 to 170 °C.

Take `CC[C@H](COC)n1cc(Br)nc(N2CCc3cc(Cl)cc(Cl)c32)c1=O`: the melting point was in the range of 150 to 152 °C.

For `CCN1C(=O)C(C(=O)Nc2cccc(S(C)=O)c2)c2cc3c(cc21)CCO3` (stereo not drawn), the melting point fell in the range of 180 to 185 °C.

For `COC(=O)C(=O)c1ccc(S(=O)(=O)CCOc2ccc3ccccc3c2)cc1`, the melting point lay in the range of 110 to 111 °C.

As to `O=[N+]([O-])c1cccc(-c2cc(C(O)c3ccnc(Cl)c3)cc3ccoc23)c1` (stereo not drawn), the melting point fell in the range of 178 to 180 °C.

Turning to `COC(=O)c1ccc2cc(-c3ccc(C(=O)O)c(C45CC6CC(CC(C6)C4)C5)c3)ccc2c1`, the melting point lay within 239 to 240 °C.

Molecule `CCOC(=O)C(C(=O)CC)C(=O)OCC` displayed a melting point of 89 to 93 °C.

`c1ccc2oc(-c3ccc(-c4nc5ccccc5o4)cc3)nc2c1`: the melting point was 318 to 328 °C.

`CC(C)(C)OC(=O)N1CCCC(C2=C(C#N)C(c3cccc4nonc34)c3c[nH]nc3N2)C1` (stereo not drawn): the melting point came to 229 °C.

The molecule `O=C1CC(C(=O)O)(c2ccc(F)cc2)c2ccccc21` (stereo not drawn) displayed a melting point of 106 to 108 °C.

For the molecule `COC1(OC)CN(c2nc3c(cc2F)C=C(C(=O)O)CN3c2ccc(F)cc2F)CC1C` (stereo not drawn), the melting point lay within 179 to 182 °C.

In turn, `Cc1ccc(-n2ncc(C(=O)O)c2C)cc1` came in with a melting point of 203 °C.

With `Cc1oc(-c2ccccc2)nc1COc1ccc(COc2cc(CCC(=O)O)n(-c3ccccc3)n2)cc1`, the melting point was 154 to 155 °C.

In turn, `CC(C)(C)OC(=O)OC(=O)c1ccc(NNC(N)=S)cc1` came in with a melting point of 161 to 163 °C.

`O=[N+]([O-])c1ccc(C2=NNC(CO)Cc3cc4c(cc32)OCO4)cc1` (stereo not drawn) returned a melting point of 132 to 134 °C.

On to `CC12CCCc3cc(N(CC4CC4)c4ccc(C(=O)O)cc4)cc(c31)CCC2`, for which the melting point is 234 to 235 °C.

The molecule `O=[N+]([O-])c1ccc(O)c(CO)c1` returned a melting point of 112 to 114 °C.

With `O=C1CCC(c2ccc(NC(=O)C3CC3)cc2)=NN1`, the melting point was in the range of 272 to 273 °C.

Turning to `CN(C(C)(C)C)S(=O)(=O)CC(N)=O`, the melting point was 105 to 109 °C.

Molecule `CC(=O)Nc1nc2ccc(S(=O)(=O)n3c(CCC(=O)O)cc4cc(Cl)ccc43)cc2s1` yielded a melting point above 250 °C.

With `CCOC(=O)COc1cc(F)c(C)cc1C(=O)NCc1ccc(Br)cc1F`, the melting point lay within 128 to 129 °C.

`CC(C)(C)OC(=O)Nc1cc(N2CCOCC2)c(I)cc1N` registered a melting point of 139 to 143 °C.

Turning to `CCOC(=O)c1cccc(CN2CCN(c3nc(C)c(C(=O)NCc4ccccc4)s3)C2=O)c1`, the melting point lay within 118 to 120 °C.

Molecule `Cc1ccc2c(c1)c1cc(-c3cccc(Br)c3)c(=O)n(C)c1n2C` returned a melting point of 215 to 216 °C.

For the molecule `COCCNC(=O)c1cccc(-c2cccc3cc(Cc4cccc(C(C)=O)c4)sc23)c1`, the melting point was in the range of 81 to 82 °C.

Regarding `CC(O)(C1CCC(Oc2ncnc3ccccc23)CC1)C(F)(F)F` (stereo not drawn), the melting point lay in the range of 159 to 160 °C.

On to `COc1ccc2c(c1)C(=O)c1c-2c(O)nc2ccccc12`, for which the melting point is 294 to 296 °C.

For the molecule `CCOC(=O)c1sc2cc(OCc3ccccc3)ccc2c1Sc1ccccc1`, the melting point was in the range of 96 to 97 °C.

The molecule `CCCCCCCNC(=O)Nc1cccc(N(C)C)c1C(=O)NC1CCN(C(c2ccccc2)c2ccccc2)CC1` gave a melting point of 77 °C.

Regarding `CCN(CC)c1ccc(C(=O)c2c(Cl)c(Cl)c(Cl)c(Cl)c2C(=O)O)c(C)c1`, the melting point fell in the range of 179 to 181 °C.

In turn, `COC(=O)c1nc(CN(C)C)n(-c2ccc(Cl)cc2C(=O)c2ccccc2)n1` returned a melting point of 118 to 121 °C.
